The target of this experiment is T1, human serum albumin (HSA) (Homo sapiens, UniProt P02768).
T1 construct: gene ALB; commercial HSA from Sigma-Aldrich, full mature protein, untagged, monomeric
The experiment can be described thus: isothermal titration calorimetry, independent binding model. The settings on record: read-out: Ka (converted). (In general: In ITC the heat of successive injections is recorded.)

The record followed here is publication PMC9312188, “Antioxidant Activity Evaluation and Assessment of the Binding Affinity to HSA of a New Catechol Hydrazinyl-Thiazole Derivative” (Antioxidants, 2022).

T1 sequence (P02768 25-609): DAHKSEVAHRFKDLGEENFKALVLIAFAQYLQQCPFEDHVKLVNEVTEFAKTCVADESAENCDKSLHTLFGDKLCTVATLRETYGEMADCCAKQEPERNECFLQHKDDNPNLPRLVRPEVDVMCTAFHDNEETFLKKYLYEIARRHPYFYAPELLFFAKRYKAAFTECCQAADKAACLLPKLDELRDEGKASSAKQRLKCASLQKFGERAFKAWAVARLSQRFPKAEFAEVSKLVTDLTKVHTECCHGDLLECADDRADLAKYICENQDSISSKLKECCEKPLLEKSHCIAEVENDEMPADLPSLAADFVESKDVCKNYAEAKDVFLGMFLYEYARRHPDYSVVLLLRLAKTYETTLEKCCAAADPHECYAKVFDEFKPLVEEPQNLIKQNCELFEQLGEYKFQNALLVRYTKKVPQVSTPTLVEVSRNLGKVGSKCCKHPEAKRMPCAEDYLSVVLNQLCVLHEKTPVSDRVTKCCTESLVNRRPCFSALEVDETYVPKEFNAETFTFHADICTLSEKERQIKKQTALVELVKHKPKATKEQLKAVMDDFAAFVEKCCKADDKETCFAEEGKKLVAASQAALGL

`Cc1csc(N/N=C/c2ccc(O)c(O)c2)n1` [compound 5, (E)-2-(3,4-dihydroxybenzylidene)-1-(4-methylthiazol-2-yl)hydrazin-1-ium chloride]: the Kd is 140 µM.
